Laboratory results as given in patent US4000269A, “S-(α-substituted-arylmethylthio, -arylmethylsulfinyl, and -arylmethylsulfonyl)methyl phosphorus esters used as insecticides” (priority 1975, dated 1976).

Legend:
Type in all cases: in vivo
[1] = tested on: Tarnished Plant Bug (Lygus lineolaris); assay: A. Tarnished Plant Bug leaf-dip test; settings: 48 h, 100 ppm., 2 days, read-out: Percent Mortality, Tarnished plant Bug
Procedure: (§1) Test compounds are prepared as 1000 ppm. solutions in 10 % acetone, 0.2 % Alrodyne 315 , and 89.8 % water. A tenfold dilution is made with 65 % acetone and 35 % water. The primary leaves of Sieva lima bean plants are dipped for 3 to 5 seconds in the test solutions and placed in an exhaust hood to dry. When dry, each leaf is placed in a 4 -inch petri dish with a moist filter paper on the bottom. Ten adult Lygus bugs are aspirated from the stock culture and placed in the petri dish. The dishes are covered and held at 80° F. and 50 % R.H. After 2 days, mortality counts are made.

[2] = tested on: Malaria Mosquito (Anopheles quadrimaculatus); assay: H. Malaria Mosquito Adult Test; settings: 24 h, adults, 1 day, read-out: Percent Mortality, Malaria Mosquito
Procedure: Solutions of 65% acetone/35% water containing 10 ppm. of test compound are poured into wide-mouth 2-ounce jars, each containing a microscope slide. The slides are removed from the test solution with forceps and laid horizontally to dry on a wide-mouth 4-ounce bottle. When dry, they are placed in the same 4-ounce bottle and 10 4- to 5-day-old mosquitoes of mixed sexes are added to each bottle. A piece of cotton gauze held on by an elastic band serves as a lid, and wad of cotton soaked in 10% honey solution serves as food. Mortality counts are made after 1 day at 80° F., 50% R.H. (relative humidity) Data obtained with the above procedures are reported in Table II below.

[3] = tested on: Western Potato Leafhopper (Empoasca abrupta); assay: G. Western Potato Leafhopper plant-dip test; settings: 48 h, 2 days, read-out: Percent Mortality, Western Potato Leafhopper
Procedure: Sieva lima bean plants with the primary leaf expanded to 3 to 4 inches are dipped into 100 or 10 ppm. 50 % acetone/50 % water solutions and set in the hood to dry. A 1 -inch piece of the tip of a treated leaf is cut off and placed in a 4 -inch petri dish with a moist filter paper in the bottom. From 3 to 10 second-instar nymphs are tapped from the culture plants into the test dish and rapidly covered. Mortality counts are made after 2 days at 80° F., and 50 % R.H.

Bean Aphid (Aphis fabae) = assay: C. Bean Aphid spray test; settings: 48 h, 2 days, read-out: Percent Mortality, Bean Aphid
Procedure: Compounds are tested at 100 , 10 and 1 ppm. in solution or suspension in 65 % acetone/35 % water. Two-inch fiber pots each containing a nasturtium plant 2 inches high and infested with about 150 aphids 2 days earlier, are placed on a turntable (4 RPM) and sprayed for two revolutions with a No. 154 DeVilbiss Atomizer at 20 psi. air pressure. The spray tip is held about 6 inches from the plants, and the spray is directed so as to give complete coverage of the aphids and the plants. The sprayed plants are laid on their sides on white enamel trays. Mortality estimates are made after holding for 2 days at 70° F. and 50% R.H.

[4] = tested on: Boll Weevil (Anthonomus grandis); assay: B. Boll Weevil leaf-dip test; settings: 48 h, 100 ppm., 2 days, read-out: Percent Mortality, Boll Weevil
Procedure: as §1, with “The first or second true leaf” for “The primary leaves”, “of young cotton” for “of Sieva lima bean”, “plants is” for “plants are”, “test solution” for “test solutions”, “adult boll weevils” for “adult Lygus bugs”, “are removed” for “are aspirated”

[5] = tested on: Southern Armyworm (Prodenia eridania); assay: D. Southern Armyworm leaf-dip test; settings: Spodoptera eridania, 48 h, 2 days, read-out: Percent Mortality, Southern Armyworm
Procedure: Compounds are tested at 1000 and 100 ppm. in solution or suspension in 65 % acetone/35 % water. Sieva lima bean primary leaves are dipped for 3 seconds in the test solution and set in a hood on a screen to dry. When dry, each leaf is placed in a 4 -inch petri dish which has a moist filter paper in the bottom and ten third-instar armyworm larvae about 3/8 inch long. The dishes are covered and held at 80° F., and 60 % R.H. After 2 days, mortality counts and estimates of the amount of feeding are made. Compounds showing partial kill and/or inhibition of feeding are held an extra day for further observations.

[6] = tested on: Two-spotted Spider Mite (Tetranychus urticae); assay: E. Two-spotted Spider Mite plant-dip test; settings: 48 h, read-out: Percent Mortality, Two-spotted Spider Mite; for mortality at 100 ppm: 2 days
Procedure: Sieva lima bean plants with primary leaves 3 to 4 inches long are infested with about 100 adult mites per leaf 4 hours before use in this test. The mite and egg infested plants are dipped for 3 seconds in the same solutions used in the aphid test, and the plants set in the hood to dry. They are held for 2 days at 80° F., 60% R.H., and the adult mite mortality estimated on one leaf under a steroscopic microscope. The other leaf is left on the plant an additional 5 days and then examined at 10 X power to estimate the kill of eggs and of newly hatched nymphs, giving a measure of ovicidal and residual action, respectively.

[7] = tested on: Mexican Bean Beetle (Epilachna varivestis); assay: F. Mexican Bean Beetle leaf-dip test; settings: 48 h, 2 days, read-out: Percent Mortality, Mexican Bean Beetle
Procedure: Compounds to be tested are made up as 100 or 10 ppm. solutions in 65 % acetone/35 % water. Sieva lima bean leaves are dipped in the test solution and set in the hood to dry. When dry, they are placed in 4 -inch petri dishes which have a moist filter paper in the bottom, and 10 third-instar bean beetles are added to each dish. The dishes are covered and held at 80° F., 60 % R.H. After 2 days, mortality counts and estimates of the amount of feeding are made. Compounds showing kills greater than 75 % are further tested at tenfold dilutions in 65 % acetone/35 % water.

| Compound | mortality at 100 ppm [1] | mortality at 10 ppm [2] | mortality at 10 ppm [3] | mortality at 100 ppm [3] | mortality at 1 ppm (Bean Aphid (Aphis fabae)) | mortality at 10 ppm (Bean Aphid (Aphis fabae)) | mortality at 100 ppm (Bean Aphid (Aphis fabae)) | mortality at 100 ppm [4] | mortality at 100 ppm [5] | mortality at 1000 ppm [5] | mortality at 100 ppm [6] | mortality at 300 ppm [6] | mortality at 10 ppm [7] | mortality at 100 ppm [7] |
| --- | --- | --- | --- | --- | --- | --- | --- | --- | --- | --- | --- | --- | --- | --- |
| COP(=O)(SC)SCSC(C)(C)c1ccc(Cl)cc1 (stereo not shown) [drawing 23] | 0% | 0% | 0% | 100% | 95% | 100% | 100% | 90% | 0% | 100% | 0% | 50% | 0% | 40% |
| COP(=S)(OC)SCSC(C)(C)c1ccc(C#N)cc1 [drawing 9] | 0% | 60% | 100% | 100% | 100% | 100% | 100% | 90% | 100% | 100% | 100% | 100% | – | 90% |
| COP(=S)(OC)SCSC(C)(C)c1ccc(Br)cc1 [drawing 19] | 40% | 75% | 0% | 100% | 100% | 100% | 100% | 100% | 100% | 100% | 100% | 100% | 0% | – |
| COP(=S)(OC)SCSC(C)(C)c1ccc(Cl)c(Cl)c1 [drawing 21] | 40% | 67% | 0% | 100% | 98% | 100% | 100% | 70% | 100% | 100% | 100% | 100% | 0% | 30% |
| CCOP(=S)(OCC)SCSC(C)(C)c1ccc(Cl)cc1 [drawing 18] | 0% | 75% | 100% | 100% | 90% | 100% | 100% | 0% | 100% | 100% | 100% | 100% | 40% | 100% |
| CCOP(=S)(OCC)SCSC(C)(C)c1cc(Cl)ccc1Cl [drawing 11] | 0% | 30% | 50% | 100% | 50% | 100% | 100% | 50% | 100% | 100% | 90% | 100% | – | 0% |
| COP(=S)(OC)SCSC(C)(C)c1ccc(Cl)cc1 [drawing 22] | 0% | 100% | 0% | 100% | 100% | 100% | 100% | 100% | 100% | 100% | 100% | 100% | 0% | 50% |
| CCOP(=S)(OCC)SCSC(C)c1ccccc1 (stereo not shown) [drawing 7] | 70% | 100% | 100% | 100% | 100% | 100% | 100% | 0% | 30% | 100% | 0% | 100% | 0% | 100% |
